Assays:
Raji [1] = assay: Antiproliferative activity against human Raji cells assessed as inhibition of cell growth incubated for 72 hrs by MTT assay; type: functional, cell-based
MCF7 [2] = assay: Antiproliferative activity against estrogen receptor positive human MCF7 cells assessed as inhibition of cell growth incubated for 72 hrs by MTT assay; type: functional, cell-based; conditions: MCF7, 72 h
Jurkat = assay: Antiproliferative activity against human Jurkat cells assessed as inhibition of cell growth incubated for 72 hrs by MTT assay; type: functional, cell-based
K562 [3] = assay: Antiproliferative activity against human K562 cells assessed as inhibition of cell growth incubated for 72 hrs by MTT assay; type: functional, cell-based; conditions: K562, 72 h
[4] = (§1) Cytotoxicity against human MRC5 cells assessed as inhibition of cell growth incubated for 72 hrs by MTT assay; type: toxicity, cell-based; conditions: human, MRC5 cells
A549 [5] = assay: Antiproliferative activity against human A549 cells assessed as inhibition of cell growth incubated for 72 hrs by MTT assay; type: functional, cell-based; conditions: A549, 72 h
HL-60 = assay: Antiproliferative activity against human HL-60 cells assessed as inhibition of cell growth incubated for 72 hrs by MTT assay; type: functional, cell-based; conditions: HL-60, 72 h
HeLa [6] = assay: Antiproliferative activity against human HeLa cells assessed as inhibition of cell growth incubated for 72 hrs by MTT assay; type: functional, cell-based
MDA-MB-231 = assay: Antiproliferative activity against estrogen receptor negative human MDA-MB-231 cells assessed as inhibition of cell growth incubated for 72 hrs by MTT assay; type: functional, cell-based; conditions: MDA-MB-231, 72 h
K562 [7] = assay: Potency index, ratio of cleistenolide IC50 to test compound IC50 for antiproliferative activity against human K562 cells assessed as inhibition of cell growth incubated for 72 hrs by MTT assay; type: functional
A549 [8] = assay: Potency index, ratio of doxorubicin IC50 to test compound IC50 for antiproliferative activity against human A549 cells assessed as inhibition of cell growth incubated for 72 hrs by MTT assay; type: functional
A549 [9] = assay: Potency index, ratio of cleistenolide IC50 to test compound IC50 for antiproliferative activity against human A549 cells assessed as inhibition of cell growth incubated for 72 hrs by MTT assay; type: functional
MRC5 = assay: as §1; type: toxicity, cell-based; conditions: mrc5
MCF7 [10] = assay: Potency index, ratio of cleistenolide IC50 to test compound IC50 for antiproliferative activity against human MCF7 cells assessed as inhibition of cell growth incubated for 72 hrs by MTT assay; type: functional
HeLa [11] = assay: Potency index, ratio of cleistenolide IC50 to test compound IC50 for antiproliferative activity against human HeLa cells assessed as inhibition of cell growth incubated for 72 hrs by MTT assay; type: functional
Raji [12] = assay: Potency index, ratio of cleistenolide IC50 to test compound IC50 for antiproliferative activity against human Raji cells assessed as inhibition of cell growth incubated for 72 hrs by MTT assay; type: functional

| IC50 (Raji [1]) [µM] | IC50 (MCF7 [2]) [µM] | IC50 (Jurkat) [µM] | IC50 (K562 [3]) [µM] | IC50 (A549 [5]) [µM] | IC50 (HL-60) [µM] | IC50 (HeLa [6]) [µM] | IC50 (MDA-MB-231) [µM] | SMILES | IC50 at 72 h [4] [µM] | Ratio IC50 (K562 [7]) | Ratio IC50 (A549 [8]) | Ratio IC50 (A549 [9]) | IC50 (MRC5) [µM] | Ratio IC50 (MCF7 [10]) | Ratio IC50 (HeLa [11]) | Ratio IC50 (Raji [12]) |
| --- | --- | --- | --- | --- | --- | --- | --- | --- | --- | --- | --- | --- | --- | --- | --- | --- |
| 29.4 | 8.26 | 27.2 | 3.4 | 16.5 | 22.3 | 6.09 | 24.4 | CC1(C)O[C@H]2O[C@@H]3C=CC(=O)O[C@@H]3[C@H]2O1 | > 100 | – | – | – | – | – | – | – |
| 19.8 | 4.58 | 17.5 | 1.18 | 12.5 | 9.62 | 5.36 | 45.6 | CC(=O)OC[C@@H](O)[C@H]1OC(=O)C=C[C@H]1O | > 100 | 5 | – | – | – | – | – | – |
| 17 | 3.26 | 15.2 | 8.78 | 11.3 | 3.63 | 14.2 | 14.9 | CC(=O)O[C@H](COC(=O)c1ccccc1)[C@H]1OC(=O)C=C[C@H]1OS(C)(=O)=O | – | – | – | – | > 100 | ~8 | – | – |
| 10.7 | 5.01 | 18.3 | 2.65 | 22.9 | 4.39 | 10.8 | 15.9 | CC(=O)OC[C@@H](OC(C)=O)[C@H]1OC(=O)C=C[C@H]1OC(=O)c1ccccc1 | > 100 | – | – | – | – | – | – | – |
| 11.3 | 10.5 | 15.3 | 1.23 | 19.9 | 12.3 | 4.69 | 14.1 | O=C1C=C[C@@H](O)[C@@H]([C@@H](O)COC(=O)c2ccccc2)O1 | > 100 | 5 | – | – | – | – | – | – |
| 18.8 | 4.14 | 16.7 | 6.72 | 12.1 | 11.6 | 9.96 | 35.4 | CC(=O)O[C@H](COC(=O)c1ccccc1)[C@H]1OC(=O)C=C[C@H]1O[Si](C)(C)C(C)(C)C | > 100 | – | – | – | – | – | – | – |
| 13.1 | 15.1 | 15.5 | 5.58 | 16.2 | 9.84 | 6.79 | 23.7 | CC(=O)O[C@@H](COC(=O)c1ccccc1)[C@H]1OC(=O)C=C[C@H]1OC(C)=O | 98.2 | – | – | – | – | – | – | – |

More lines, now with the values behind:

| SMILES | IC50 (Raji [1]) [µM] | IC50 (MCF7 [2]) [µM] | IC50 (Jurkat) [µM] | IC50 (K562 [3]) [µM] | IC50 (A549 [5]) [µM] | IC50 (HL-60) [µM] | IC50 (HeLa [6]) [µM] | IC50 (MDA-MB-231) [µM] | IC50 at 72 h [4] [µM] | Ratio IC50 (K562 [7]) | Ratio IC50 (A549 [8]) | Ratio IC50 (A549 [9]) | IC50 (MRC5) [µM] | Ratio IC50 (MCF7 [10]) | Ratio IC50 (HeLa [11]) | Ratio IC50 (Raji [12]) |
| --- | --- | --- | --- | --- | --- | --- | --- | --- | --- | --- | --- | --- | --- | --- | --- | --- |
| CC(=O)OC[C@@H](OC(C)=O)[C@H]1OC(=O)C=C[C@H]1OCc1ccccc1 | 11.7 | 15.5 | 19 | 1.12 | 23.2 | 1.39 | 6.17 | 16.1 | > 100 | 5 | – | – | – | – | – | – |
| CC(=O)O[C@H](COC(=O)c1ccccc1)[C@H]1OC(=O)C=C[C@H]1OC(=O)/C=C/c1ccc([N+](=O)[O-])cc1 | 25 | 21.3 | 23.5 | 5.82 | 2.55 | 24.5 | 13.3 | 15.5 | > 100 | – | ~2 | >6 | – | – | – | – |
| CC(=O)O[C@H](COC(=O)c1ccccc1)[C@H]1OC(=O)C=C[C@H]1OS(=O)(=O)c1ccc(C)cc1 | 18.9 | 11.3 | 26.6 | 4.5 | 12.4 | 20.9 | 15.8 | 14.8 | > 100 | – | – | – | – | – | – | – |
| CC(=O)O[C@H](COC(=O)c1ccccc1)[C@H]1OC(=O)C=C[C@H]1OC(=O)/C=C/c1ccc(F)cc1 | 26.4 | 5.28 | 28.6 | 6.75 | 87.6 | 16.1 | 17.9 | 17.7 | > 100 | – | – | – | – | – | – | – |
| CC(=O)O[C@H](COC(=O)c1ccccc1)[C@H]1OC(=O)C=C[C@H]1O[Si](c1ccccc1)(c1ccccc1)C(C)(C)C | 25.1 | 9.39 | 19.7 | 5.85 | 30.6 | 5.64 | 3.35 | 8.36 | > 100 | – | – | – | – | – | >2 | – |
| COc1ccc(/C=C/C(=O)O[C@@H]2C=CC(=O)O[C@@H]2[C@@H](COC(=O)c2ccccc2)OC(C)=O)cc1 | 25.7 | 12.8 | 24.1 | 1.28 | 41.6 | 15.3 | 15.6 | 26.6 | > 100 | 5 | – | – | – | – | – | – |
| O=C1C=C[C@@H](OCc2ccccc2)[C@@H]([C@@H](COC(=O)c2ccccc2)OCc2ccccc2)O1 | 19.2 | 5.9 | 12 | 0.67 | 12.9 | 3.34 | 8.3 | 19.2 | > 100 | >10 | – | – | – | – | – | – |
| COc1cccc(C(=O)O[C@@H]2C=CC(=O)O[C@@H]2[C@@H](COC(=O)c2ccccc2)OC(C)=O)c1 | 25.2 | 8.79 | 25.3 | 1.59 | 12.1 | 1.7 | 9.43 | 25.6 | > 100 | 5 | – | – | – | – | – | – |
| CC(=O)O[C@@H]1C=CC(=O)O[C@@H]1[C@@H](COC(=O)c1ccccc1)OC(C)=O | – | – | – | – | – | – | – | – | > 100 | – | – | – | – | – | – | – |
| CC(=O)O[C@H](COC(=O)c1ccccc1)[C@H]1OC(=O)C=C[C@H]1OC(=O)/C=C/c1ccccc1 | 3.3 | 22.5 | 11.8 | 0.76 | 8.55 | 6.36 | 7 | 4.29 | > 100 | >10 | – | – | – | – | – | >10 |
| COc1ccc(/C=C/C(=O)O[C@@H]2C=CC(=O)O[C@@H]2[C@@H](COC(=O)c2ccccc2)OC(C)=O)cc1OC | 26.4 | 6.35 | 22.6 | 4.52 | 13.6 | 5.75 | 8.73 | 15.9 | > 100 | – | – | – | – | – | – | – |
| CC(=O)O[C@H](COC(=O)c1ccccc1)[C@H]1OC(=O)C=C[C@H]1OC(=O)C(c1ccccc1)c1ccccc1 | 14 | 2.83 | 14.5 | 6.32 | 11 | 4.64 | 9.75 | 17.6 | > 100 | – | – | – | – | >9 | – | – |
| CC(=O)O[C@H](COC(=O)c1ccccc1)[C@H]1OC(=O)C=C[C@H]1OC(=O)c1c(Cl)cc(Cl)cc1Cl | 23.6 | 28.4 | 9.4 | 11.9 | 5.02 | 22.9 | 8.71 | 23.4 | > 100 | – | – | – | – | – | – | – |

Reference: ChEMBL document CHEMBL5614384, “Synthesis and antiproliferative activity of (-)-cleistenolide, (6S)-cleistenolide and 4-substituted cleistenolide analogues” (Bioorg Med Chem, 2024)
